Where a name gives a salt, the structure may show the parent alone.
Legend:
[1] = target: T1, human arginase I (ARG I) (Homo sapiens, UniProt P05089); experiment: Inhibition of arginase I, spectrophotometric urea assay at 530 nm; format: biochemical; settings: Formula II compounds, Table 2-A; read-out: Potency (ARG I)
T1 sequence (P05089 1-322): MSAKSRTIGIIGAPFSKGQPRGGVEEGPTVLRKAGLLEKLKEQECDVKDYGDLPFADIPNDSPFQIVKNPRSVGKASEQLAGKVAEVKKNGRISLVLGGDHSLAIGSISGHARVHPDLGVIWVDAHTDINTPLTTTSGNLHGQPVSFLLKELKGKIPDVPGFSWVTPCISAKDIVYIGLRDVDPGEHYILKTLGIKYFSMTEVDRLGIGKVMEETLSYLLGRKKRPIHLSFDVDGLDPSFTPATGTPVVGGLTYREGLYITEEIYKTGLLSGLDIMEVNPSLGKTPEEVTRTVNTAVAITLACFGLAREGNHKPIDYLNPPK
In short: (§1)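 IC50 was derived by regression of OD530 normalized to uninhibited-enzyme controls against log concentration. Urea from 60-min, 37 °C turnover of L-arginine with manganese sulfate was detected after acid o-phthaldialdehyde/primaquine quench and 10 min colour development. Arginase I and II came from 100 ng/ml stocks in pH 7.4 phosphate with ovalbumin.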

[2] = target: T2, arginase II (ARG II) (Homo sapiens, UniProt P78540); experiment: Inhibition of arginase II, spectrophotometric urea assay at 530 nm; format: biochemical; settings: Formula II compounds, Table 2-A; read-out: Potency (ARG)
T2 sequence (P78540 23-354): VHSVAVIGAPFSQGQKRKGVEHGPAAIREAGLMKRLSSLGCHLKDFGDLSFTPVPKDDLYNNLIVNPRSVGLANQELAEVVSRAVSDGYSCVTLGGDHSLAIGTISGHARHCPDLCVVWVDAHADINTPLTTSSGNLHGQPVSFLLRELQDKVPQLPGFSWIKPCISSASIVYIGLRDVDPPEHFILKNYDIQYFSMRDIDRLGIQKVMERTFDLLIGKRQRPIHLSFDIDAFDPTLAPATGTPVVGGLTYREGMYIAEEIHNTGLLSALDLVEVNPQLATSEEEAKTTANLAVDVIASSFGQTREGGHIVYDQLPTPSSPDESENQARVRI
In short: as §1

Row | SMILES | IC50 [1] [nM] | IC50 [2] [nM]
1 | NC(CCCCB(O)O)(C(=O)O)C1CCCNCC1 (stereo not shown) [Example 72-A, 2-amino-2-(azepan-4-yl)-6-boronohexanoic acid dihydrochloride] | 0.1 to 250 | 251 to 1000
2 | NC(CCCCB(O)O)(C(=O)O)[C@H]1C[C@@H](NCc2ccccc2)C1 (stereo partly drawn) [Example 74-A, cis-2-amino-2-(3-(benzylamino)cyclobutyl)-6-boronohexanoic acid dihydrochloride] | 0.1 to 250 | 0.1 to 250
3 | NC(CCCCB(O)O)(C(=O)O)[C@H]1C[C@H](NCc2ccccc2)C1 (stereo partly drawn) [Example 75-A, trans-2-amino-2-(3-(benzylamino)cyclobutyl)-6-boronohexanoic acid dihydrochloride] | 0.1 to 250 | 251 to 1000
4 | NC(CCCCB(O)O)(C(=O)O)[C@H]1C[C@@H](NCc2ccc(OC(F)(F)F)cc2)C1 (stereo partly drawn) [Example 76-A, cis-2-amino-6-borono-2-(3-(4-(trifluoromethoxy)benzylamino)cyclobutyl)hexanoic acid dihydrochloride] | 0.1 to 250 | 0.1 to 250
5 | NC(CCCCB(O)O)(C(=O)O)[C@H]1C[C@@H](NCc2ccc(-c3ccccc3)cc2)C1 (stereo partly drawn) [Example 77-A, cis-2-amino-2-(3-(biphenyl-4-ylmethylamino)cyclobutyl)-6-boronohexanoic acid dihydrochloride] | 0.1 to 250 | 0.1 to 250
6 | NC(CCCCB(O)O)(C(=O)O)[C@H]1C[C@@H](NCc2cc3c(cc2Cl)OCO3)C1 (stereo partly drawn) [Example 78-A, cis-2-amino-6-borono-2-(3-((6-chlorobenzo[d][1,3]dioxol-5-yl)methylamino)cyclobutyl)hexanoic acid dihydrochloride] | 0.1 to 250 | 0.1 to 250
7 | NC(CCCCB(O)O)(C(=O)O)[C@H]1C[C@@H](NCc2cccc3cccnc23)C1 (stereo partly drawn) [Example 79-A, cis-2-amino-6-borono-2-(3-(quinolin-8-ylmethylamino)cyclobutyl)hexanoic acid dihydrochloride] | 0.1 to 250 | 0.1 to 250
8 | NC(CCCCB(O)O)(C(=O)O)[C@H]1C[C@@H](NCc2cccc3ccccc23)C1 (stereo partly drawn) [Example 80-A, cis-2-amino-6-borono-2-(3-(naphthalen-1-ylmethylamino)cyclobutyl)hexanoic acid dihydrochloride] | 0.1 to 250 | 0.1 to 250
9 | NC(CCCCB(O)O)(C(=O)O)[C@H]1C[C@@H](N)C1 (stereo partly drawn) [Example 81-A, cis-2-amino-2-(3-aminocyclobutyl)-6-boronohexanoic acid dihydrochloride] | 0.1 to 250 | 0.1 to 250
10 | NC(CCCCB(O)O)(C(=O)O)[C@H]1C[C@@H](NCc2ccc(Cl)cc2)C1 (stereo partly drawn) [Example 82-A, cis-2-amino-6-borono-2-(3-(4-chlorobenzylamino)cyclobutyl)hexanoic acid dihydrochloride] | 0.1 to 250 | 0.1 to 250
11 | CC(C)CN[C@H]1C[C@@H](C(N)(CCCCB(O)O)C(=O)O)C1 (stereo partly drawn) [Example 83-A, cis-2-amino-6-borono-2-(3-(isobutylamino)cyclobutyl)hexanoic acid dihydrochloride] | 0.1 to 250 | 0.1 to 250
12 | NC(CCCCB(O)O)(C(=O)O)[C@H]1CC[C@@H](C(=O)c2ccc(Cl)cc2)CC1 (stereo partly drawn) [Example 84-A, cis-2-Amino-6-borono-2-[4-(4-Chlorobenzoyl)-cyclohexyl]hexanoic acid hydrochloride] | > 5000 | > 5000
13 | NC(CCCCB(O)O)(C(=O)O)C1CCN(c2ccc(Cl)cn2)CC1 (stereo not shown) [Example 85-A, 2-amino-6-borono-2-(1-(5-chloropyridin-2-yl)piperidin-4-yl)hexanoic acid hydrochloride] | 1000 to 2000 | 251 to 1000
14 | NC(CCCCB(O)O)(C(=O)O)C1CCC(c2ccc(Cl)cc2)CC1 (stereo not shown) [Example 86-A, 2-amino-6-borono-2-(4-(4-chlorophenyl)cyclohexyl)hexanoic acid hydrochloride] | > 5000 | > 5000
15 | NC(CCCCB(O)O)(C(=O)O)C1CCNCC1 (stereo not shown) [Example 88-A, 2-amino-6-borono-2-(piperidin-4-yl)hexanoic acid dihydrochloride] | 251 to 1000 | 251 to 1000
16 | CC(C)CCN1CCC(C(N)(CCCCB(O)O)C(=O)O)CC1 (stereo not shown) [Example 92-A, 2-amino-6-borono-2-(1-isopentylpiperidin-4-yl)hexanoic acid dihydrochloride] | 0.1 to 250 | 0.1 to 250

Now from value to compound:

Row | IC50 [1] [nM] | IC50 [2] [nM] | SMILES
17 | 0.1 to 250 | 0.1 to 250 | NC(CCCCB(O)O)(C(=O)O)C1CCN(CCCc2ccc(C(F)(F)F)cc2)CC1 (stereo not shown) [Example 63-A, 2-amino-6-borono-2-(1-(3-(4-(trifluoromethyl)phenyl)propyl)piperidin-4-yl)hexanoic acid acid dihydrochloride]
18 | 0.1 to 250 | 0.1 to 250 | NC(CCCCB(O)O)(C(=O)O)C1CCN(Cc2ccc(Oc3ccc(Cl)c(Cl)c3)cc2)CC1 (stereo not shown) [Example 64-A, 2-amino-6-borono-2-(1-(4-(3,4-dichlorophenoxy)benzyl)piperidin-4-yl)hexanoic acid dihydrochloride]
19 | 0.1 to 250 | 0.1 to 250 | NC(CCCCB(O)O)(C(=O)O)C1CCN(Cc2cccc(Cn3cccn3)c2)CC1 (stereo not shown) [Example 65-A, 2-(1-(3-((1H-pyrazol-1-yl)methyl)benzyl)piperidin-4-yl)-2-amino-6-boronohexanoic acid dihydrochloride]
20 | 0.1 to 250 | 0.1 to 250 | NC(CCCCB(O)O)(C(=O)O)C1CCN(CCCc2ccc(Cl)cc2Cl)CC1 (stereo not shown) [Example 66-A, 2-amino-6-borono-2-(1-(3-(2,4-dichlorophenyl)propyl)piperidin-4-yl)hexanoic acid dihydrochloride]
21 | 251 to 1000 | 251 to 1000 | NC(CCCCB(O)O)(C(=O)O)[C@@H]1CCN(Cc2ccccc2)C1 (stereo partly drawn) [Example 67-A, 2-amino-2-((R)-1-benzylpyrrolidin-3-yl)-6-boronohexanoic acid dihydrochloride]
22 | 251 to 1000 | 251 to 1000 | NC(CCCCB(O)O)(C(=O)O)[C@H]1CCN(Cc2ccccc2)C1 (stereo partly drawn) [Example 68-A, 2-amino-2-((S)-1-benzylpyrrolidin-3-yl)-6-boronohexanoic acid dihydrochloride]
23 | 251 to 1000 | 1000 to 2000 | NC(CCCCB(O)O)(C(=O)O)[C@H]1CCCN(Cc2ccc(Cl)c(Cl)c2)C1 (stereo partly drawn) [Example 69-A, 2-amino-6-borono-2-((S)-1-(3,4-dichlorobenzyl)piperidin-3-yl)hexanoic acid dihydrochloride]
24 | 0.1 to 250 | 251 to 1000 | NC(CCCCB(O)O)(C(=O)O)C1CCCN(Cc2ccc(Cl)c(Cl)c2)CC1 (stereo not shown) [Example 73-A, 2-amino-6-borono-2-(1-(3,4-dichlorobenzyl)azepan-4-yl)hexanoic acid dihydrochloride]
25 | 0.1 to 250 | 0.1 to 250 | NC(CCCCB(O)O)(C(=O)O)C1CCN(Cc2ccccc2)CC1 (stereo not shown) [Example 87-A, 2-amino-2-(1-benzylpiperidin-4-yl)-6-boronohexanoic acid dihydrochloride]
26 | 0.1 to 250 | 0.1 to 250 | NC(CCCCB(O)O)(C(=O)O)C1CCN(Cc2ccc(Cl)cc2)CC1 (stereo not shown) [Example 89-A, 2-amino-6-borono-2-(1-(4-chlorobenzyl)piperidin-4-yl)hexanoic acid dihydrochloride]
27 | 0.1 to 250 | 0.1 to 250 | NC(CCCCB(O)O)(C(=O)O)C1CCN(Cc2ccc3c(c2)OCO3)CC1 (stereo not shown) [Example 90-A, 2-amino-2-(1-(benzo[d][1,3]dioxol-5-ylmethyl)piperidin-4-yl)-6-boronohexanoic acid dihydrochloride]
28 | 0.1 to 250 | 251 to 1000 | NC(CCCCB(O)O)(C(=O)O)C1CCN(Cc2cc3c(cc2Cl)OCO3)CC1 (stereo not shown) [Example 91-A, 2-amino-6-borono-2-(1-((6-chlorobenzo[d][1,3]dioxol-5-yl)methyl)piperidin-4-yl)hexanoic acid dihydrochloride]
29 | 251 to 1000 | 251 to 1000 | NC(CCCCB(O)O)(C(=O)O)C1CCN(Cc2ccc(C(F)(F)F)cc2)CC1 (stereo not shown) [Example 93-A, 2-amino-6-borono-2-(1-(4-(trifluoromethyl)benzyl)piperidin-4-yl)hexanoic acid]
30 | 0.1 to 250 | 251 to 1000 | NC(CCCCB(O)O)(C(=O)O)C1CCN(Cc2ccc(F)cc2)CC1 (stereo not shown) [Example 94-A, 2-amino-6-borono-2-(1-(4-fluorobenzyl)piperidin-4-yl)hexanoic acid dihydrochloride]
31 | 0.1 to 250 | 251 to 1000 | NC(CCCCB(O)O)(C(=O)O)C1CCN(Cc2ccc(Cl)c(Cl)c2)CC1 (stereo not shown) [Example 95-A, 2-amino-6-borono-2-(1-(3,4-dichlorobenzyl)piperidin-4-yl)hexanoic acid dihydrochloride]
32 | 0.1 to 250 | 251 to 1000 | COc1cc(F)c(CN2CCC(C(N)(CCCCB(O)O)C(=O)O)CC2)cc1OC (stereo not shown) [Example 96-A, 2-amino-6-borono-2-(1-(2-fluoro-4,5-dimethoxybenzyl)piperidin-4-yl)hexanoic acid dihydrochloride]
